{"source": "patent US12576044B2", "about": "“Treatment of Alzheimer's disease” (priority 2015, dated 2026)", "key": {"[1]": {"test_system": "superactivated platelets (SAPs)", "experiment": "In vitro synergy analysis: SAP formation with and without R, Q, C combinations, flow cytometry, Combination Index (Chou-Talalay)", "format": "cell-based, human", "procedure": "The “effective amount” or “therapeutically effective amount” also may be determined by using methods known in the art such as the in vitro flow cytometry assay to evaluate the effectiveness of multiple RQC combinations on platelet activation. All possible combinations of pre-defined “low”, “medium”, and “high” doses of R, Q, and C, respectively, are tested to determine the optimal dose combination. […] A venipuncture sample of 10 mL of blood is obtained from each patient. Of the 10 mL, a 3 mL aliquot of blood is added to a tube containing 0.5 mL of acid-citrate-dextrose solution (38 mM citric acid, 75 mM sodium citrate, 135 mM glucose) to prevent clotting. […] The PRP is transferred to a new tube, leaving about 0.5 mL above the buffy coat layer. […] Platelets are then treated with biotinylated fibrinogen and stained with the following fluorophores: APC-streptavidin (APC-SA), FITC-PAC1, and PE-anti-CD41. PE-anti-CD41 recognizes the platelet-specific, transmembrane protein CD41. FITC-PAC1 identifies activated platelets by recognizing […] which increases its expression at the surface upon activation. APC-SA recognizes superactivated platelets that more readily bind the biotinylated fibrinogen to their surface. Each sample is analyzed by a Beckman Coulter CyAn flow cytometer (Beckman Coulter, Fullerton, CA). Results are analyzed by the Summit program (Beckman Coulter). […] Thus, abnormally high SAP levels are indicative of microvascular disease. […] To evaluate synergistic drug effects, the Combination Index (CI) theorem derived by Chou-Talalay was calculated for each combination product of R, Q, and C. The CI is useful in quantifying levels of synergism and antagonism. The theorem is based on the median-effect equation to provide a common link between a single entity and multiple entities. […] Baseline differences in untreated SAP levels can be adjusted for by evaluating the proportion of total platelets that are sensitive or resistant to treatment (Table 16). This technique adjusts for overall differences in SAP levels between various disease types. […] In AD subjects (n=9), the total number of platelets sensitive to RQC was higher than in healthy controls (n=20). […] The number of sensitive platelets was higher in AD subjects with higher SAP levels while the number of resistant platelets remained largely equivalent."}, "[2]": {"target": "beta-amyloid (1-42) oligomers (Homo sapiens, UniProt P05067)", "sequence (P05067 672-713 limits assumed)": "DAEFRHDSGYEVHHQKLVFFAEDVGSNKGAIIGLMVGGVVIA", "experiment": "Thioflavin-T (ThT) assay, de-aggregation of pre-aggregated beta-amyloid", "format": "biochemical", "details": "for reduced aggregation of pre-aggregated beta-amyloid (1-42): over 8 days, 37° C.; for de-aggregation activity (words): 0.1, 1.0, 10 μM, 2 hours, 3 days, 8 days", "text": "(§1) (A) De-aggregation activity of curcumin (C). […] (B) Aggregate-prevention activity of resveratrol (R), quercetin (Q), and curcumin (C).\n(§2) The formation of beta-amyloid plaques in the brain is a major hallmark of Alzheimer's disease and is widely considered to be a key initial step in the disease progression. The aim of clinical trials for Alzheimer's disease has historically been to deaggregate or prevent the aggregation of beta-amyloid. Plaques are formed by aggregation of soluble monomeric beta-amyloid into insoluble oligomers, protofibrils, fibrils, and plaques. […] The most common method to evaluate beta-amyloid aggregation is the thioflavin-T (ThT) assay. ThT is a fluorescent probe that binds to beta-amyloid fibrils with specificity and is measurable at 482 nm when excited at 450 nm.\n(§3) Curcumin (C) was evaluated at 0.1, 1.0, and 10 μM."}, "[3]": {"target": "T1, monomeric beta-amyloid 1-42 (Homo sapiens, UniProt P05067)", "T1 construct": "5 ng monomeric beta-amyloid (1-42) (Anaspec, Fremont, CA); purchased Anaspec, Fremont, CA", "T1 sequence (P05067 672-713 limits assumed)": "as above", "experiment": "Thioflavin-T (ThT) assay, aggregate-prevention activity", "format": "biochemical", "details": "for aggregate-prevention activity: curcumin 0.1, 1.0 or 10 μM, resveratrol 10 μM, quercetin 10 μM, 60 minutes; for aggregate-prevention compared with positive control phenol red (PhR): curcumin at 1 μM, resveratrol at 10 μM", "text": "as §1, §2, §3"}, "beta-amyloid oligomers": {"test_system": "beta-amyloid oligomers", "details": "cited from earlier work"}, "beta-amyloid fibrils": {"test_system": "beta-amyloid fibrils", "details": "cited from earlier work"}, "[4]": {"test_system": "superactivated platelets (SAPs)", "experiment": "SAP inhibition by combinatorial drug treatment (flow cytometry of platelet rich plasma activated with thrombin and convulxin)", "format": "cell-based, human", "details": "10 μM, 30 minutes at 37° C., normalized relative to Control", "procedure": "A venipuncture sample of 10 mL of blood is obtained from each patient. Of the 10 mL, a 3 mL aliquot of blood is added to a tube containing 0.5 mL of acid-citrate-dextrose solution (38 mM citric acid, 75 mM sodium citrate, 135 mM glucose) to prevent clotting. […] After centrifuging at 1100 rpm for 10 minutes at room temperature, platelet rich plasma (PRP), which is the upper layer, is removed. The PRP is transferred to a new tube, leaving about 0.5 mL above the buffy coat layer. The PRP-containing tube is incubated with 10 μL of thrombin and convulxin, two agonists that activate the platelets, for five minutes. Platelets are then treated with biotinylated fibrinogen and stained with the following fluorophores: APC-streptavidin (APC-SA), FITC-PAC1, and PE-anti-CD41. PE-anti-CD41 recognizes the platelet-specific, transmembrane protein CD41. FITC-PAC1 identifies activated platelets by recognizing […] which increases its expression at the surface upon activation. APC-SA recognizes superactivated platelets that more readily bind the biotinylated fibrinogen to their surface.\nAll fluorophores are excited at 488 nm by argon laser of the flow cytometer. Their emission spectra are well separated, thereby allowing simultaneous, multi-color immunofluorescence measurements.\nEach sample is analyzed by a Beckman Coulter CyAn flow cytometer (Beckman Coulter, Fullerton, CA). Results are analyzed by the Summit program (Beckman Coulter). Data analysis is conducted for SAPs after flow cytometry using the Summit program to determine the relative percentages of each of these groups per sample. The SAPs are expressed as a percentage of the total number of events in the sample.\nIsolation and flow cytometry of SAPs was performed according to the procedure described in Example 1, above.\nAliquots of platelet rich plasma (PRP) were incubated with aqueous saline solutions of resveratrol only, quercetin only, […], and with an admixture of resveratrol, quercetin and curcumin for a time period of 30 minutes at 37° C. Thereafter the obtained PRP samples were irradiated by an argon laser at […]. Multi-color immunofluorescence was noted, and analyzed as described in Example 1, above."}}, "note": "Read-outs that look alike come from different tables or passages of the source.", "data": [{"molecule": "COc1cc(/C=C/C(=O)CC(=O)/C=C/c2ccc(O)c(OC)c2)ccc1O", "note": "[Curcumin, (1E,6E)-1,7-bis(4-Hydroxy-3-methoxyphenyl)-1,6-heptadiene-3,5-dione]", "values": [{"measurement": "% Change", "setting": "[1]; C 0.01 μM, AD patient", "value": "−11", "unit": "%"}, {"measurement": "SAP %", "setting": "[1]; C 0.01 μM, AD patient", "value": 32.5, "unit": "%"}, {"measurement": "% Change", "setting": "[1]; C 0.1 μM, AD patient", "value": "−18", "unit": "%"}, {"measurement": "SAP %", "setting": "[1]; C 0.1 μM, AD patient", "value": 30.0, "unit": "%"}, {"measurement": "% Change", "setting": "[1]; C 1 μM, AD patient", "value": "−37", "unit": "%"}, {"measurement": "SAP %", "setting": "[1]; C 1 μM, AD patient", "value": 23.2, "unit": "%"}, {"measurement": "% Change", "setting": "[1]; control subject, C 0.01 μM", "value": "−2", "unit": "%"}, {"measurement": "SAP %", "setting": "[1]; control subject, C 0.01 μM", "value": 36.6, "unit": "%"}, {"measurement": "% Change", "setting": "[1]; control subject, C 0.1 μM", "value": "−7", "unit": "%"}, {"measurement": "SAP %", "setting": "[1]; control subject, C 0.1 μM", "value": 34.6, "unit": "%"}, {"measurement": "% Change", "setting": "[1]; control subject, C 1 μM", "value": "−12", "unit": "%"}, {"measurement": "SAP %", "setting": "[1]; control subject, C 1 μM", "value": 32.9, "unit": "%"}, {"measurement": "reduced aggregation of pre-aggregated beta-amyloid (1-42)", "setting": "[2]; 0.1 μM", "value": "about 18.6%"}, {"measurement": "reduced aggregation of pre-aggregated beta-amyloid (1-42)", "setting": "[2]; 1.0 μM", "value": "~51.8", "unit": "%"}, {"measurement": "reduced aggregation of pre-aggregated beta-amyloid (1-42)", "setting": "[2]; 10 μM", "value": "~64.7", "unit": "%"}, {"measurement": "de-aggregation activity (words)", "setting": "[2]", "value": "de-aggregated beta-amyloid oligomers in a dose-dependent manner at all time points"}, {"measurement": "de-aggregation activity (words)", "setting": "[2]; listed as curcumin", "value": "dose-dependently de-aggregated existing beta-amyloid oligomers"}, {"measurement": "aggregate-prevention activity", "setting": "[3]", "value": "inhibited the formation of new beta-amyloid aggregates"}, {"measurement": "aggregate-prevention compared with positive control phenol red (PhR)", "setting": "[3]", "value": "approximately as effective as the positive control phenol red"}, {"measurement": "IC50", "setting": "beta-amyloid oligomers", "value": 800, "unit": "nM"}, {"measurement": "IC50", "setting": "beta-amyloid fibrils", "value": 1000, "unit": "nM"}]}, {"molecule": "Oc1ccc(/C=C/c2cc(O)cc(O)c2)cc1", "note": "[Resveratrol, 3,5,4′-trihydroxy-trans-stilbene]", "values": [{"measurement": "% Reduction in SAPs", "setting": "[4]", "value": 46.6, "unit": "%"}, {"measurement": "% SAPs", "setting": "[4]", "value": 53.4, "unit": "%"}, {"measurement": "% Change", "setting": "[1]; R 1 μM, AD patient", "value": "−9", "unit": "%"}, {"measurement": "SAP %", "setting": "[1]; R 1 μM, AD patient", "value": 33.6, "unit": "%"}, {"measurement": "% Change", "setting": "[1]; R 5 μM, AD patient", "value": "−17", "unit": "%"}, {"measurement": "SAP %", "setting": "[1]; R 5 μM, AD patient", "value": 30.5, "unit": "%"}, {"measurement": "% Change", "setting": "[1]; R 10 μM, AD patient", "value": "−19", "unit": "%"}, {"measurement": "SAP %", "setting": "[1]; R 10 μM, AD patient", "value": 29.9, "unit": "%"}, {"measurement": "% Change", "setting": "[1]; control subject, R 1 μM", "value": "−9", "unit": "%"}, {"measurement": "SAP %", "setting": "[1]; control subject, R 1 μM", "value": 33.9, "unit": "%"}, {"measurement": "% Change", "setting": "[1]; control subject, R 5 μM", "value": "−24", "unit": "%"}, {"measurement": "SAP %", "setting": "[1]; control subject, R 5 μM", "value": 28.2, "unit": "%"}, {"measurement": "% Change", "setting": "[1]; control subject, R 10 μM", "value": "−29", "unit": "%"}, {"measurement": "SAP %", "setting": "[1]; control subject, R 10 μM", "value": 26.3, "unit": "%"}, {"measurement": "aggregate-prevention activity", "setting": "[3]", "value": "inhibited the formation of new beta-amyloid aggregates"}, {"measurement": "aggregate-prevention compared with positive control phenol red (PhR)", "setting": "[3]", "value": "approximately as effective as the positive control phenol red"}]}, {"molecule": "O=c1c(O)c(-c2ccc(O)c(O)c2)oc2cc(O)cc(O)c12", "note": "[Quercetin, 3,3′,4′5,7-pentahydroxy-2-phenylchromen-4-one]", "values": [{"measurement": "% Reduction in SAPs", "setting": "[4]", "value": 77.8, "unit": "%"}, {"measurement": "% SAPs", "setting": "[4]", "value": 22.2, "unit": "%"}, {"measurement": "% Change", "setting": "[1]; Q 1 μM, AD patient", "value": "−7", "unit": "%"}, {"measurement": "SAP %", "setting": "[1]; Q 1 μM, AD patient", "value": 34.3, "unit": "%"}, {"measurement": "% Change", "setting": "[1]; Q 5 μM, AD patient", "value": "−27", "unit": "%"}, {"measurement": "SAP %", "setting": "[1]; Q 5 μM, AD patient", "value": 26.7, "unit": "%"}, {"measurement": "% Change", "setting": "[1]; Q 10 μM, AD patient", "value": "−44", "unit": "%"}, {"measurement": "SAP %", "setting": "[1]; Q 10 μM, AD patient", "value": 20.6, "unit": "%"}, {"measurement": "% Change", "setting": "[1]; control subject, Q 1 μM", "value": "−8", "unit": "%"}, {"measurement": "SAP %", "setting": "[1]; control subject, Q 1 μM", "value": 34.2, "unit": "%"}, {"measurement": "% Change", "setting": "[1]; control subject, Q 5 μM", "value": "−13", "unit": "%"}, {"measurement": "SAP %", "setting": "[1]; control subject, Q 5 μM", "value": 32.5, "unit": "%"}, {"measurement": "% Change", "setting": "[1]; control subject, Q 10 μM", "value": "−23", "unit": "%"}, {"measurement": "SAP %", "setting": "[1]; control subject, Q 10 μM", "value": 28.6, "unit": "%"}, {"measurement": "aggregate-prevention activity", "setting": "[3]", "value": "inhibited the formation of new beta-amyloid aggregates"}, {"measurement": "Half-life", "setting": "in vivo; cited from earlier work", "value": "3 to 17", "unit": "h"}, {"measurement": "Bioavailability", "setting": "oral, estimation; cited from earlier work", "value": "0.2-0.3%"}, {"measurement": "Bioavailability", "setting": "oral; estimation; cited from earlier work", "value": "0.2-0.3%"}]}]}
